Conditions: Liquid, Ebulliometric method (Recirculating still)

CCCCCC(C)=O [2-heptanone]
Conditions	vapor or sublimation pressure [kPa]
354.77 K	9.87
358.59 K	11.52
365.38 K	15.05
367.88 K	16.52
368.9 K	17.34
373.79 K	20.76
373.84 K	20.76
379.25 K	25.32
379.3 K	25.32
383.78 K	29.69
383.83 K	29.69
388.51 K	34.81
392.54 K	40
393.11 K	40.52
398.45 K	48.09
403.15 K	55.74
405.81 K	60.35
409.67 K	67.5
413.3 K	75.05
416.77 K	83.2
420.2 K	91.5

CCCCCCCCCC [decane]
Conditions	vapor or sublimation pressure [kPa]
413.88 K	40

CCCC(=O)CCC [4-heptanone]
Conditions	vapor or sublimation pressure [kPa]
358.74 K	14.54
363.42 K	17.72
370.01 K	22.69
377.77 K	29.93
383.7 K	36.63
385.47 K	40
385.5 K	40
385.87 K	40
388.63 K	43.17
393.78 K	50.95
398.38 K	59.15
403.74 K	69.39
407.98 K	78.55
411.2 K	86.2
413.43 K	91.55

CCO [ethanol]
Conditions	vapor or sublimation pressure [kPa]
351.14 K	101.3

CCCCCCCC [octane]
Conditions	vapor or sublimation pressure [kPa]
367.97 K	40
368.3 K	40
368.32 K	40

CCCCC(=O)CC [3-heptanone]
Conditions	vapor or sublimation pressure [kPa]
354.82 K	11.05
358.58 K	12.93
363.03 K	15.51
367.95 K	18.75
373.6 K	23.27
377.99 K	27.11
383.09 K	32.58
388.11 K	40
388.36 K	40
388.62 K	39.13
388.67 K	40
393.02 K	45.12
398.84 K	54.02
404.44 K	64.03
409.63 K	74.5
412.95 K	82
416.5 K	90.5

CCCCCCCCC [nonane]
Conditions	vapor or sublimation pressure [kPa]
391.78 K	40
391.87 K	40
391.9 K	40

CCCCO [butan-1-ol]
Conditions	vapor or sublimation pressure [kPa]
390.49 K	101.3

From the NIST ThermoML archive (doi:10.1021/je500731x)
